{
  "source": "patent US8614217B2",
  "about": "(priority 2008, dated 2013)",
  "data": [
    {"experiment": "log P(HCOOH) (HPLC/MS)", "type": "physicochemical", "details": "HPLC on reversed phase columns, EEC directive 79/831 Annex V.A8; pH 2.7 with 0.1% formic acid in water and acetonitrile", "values": [
      {"smiles": "Cn1nnnc1C(=NOCc1cccc(NC(=O)c2ccc(F)cc2)n1)c1cccc(F)c1", "note": "[Example 329]", "log p": 3.57},
      {"smiles": "Cc1ccccc1C(=O)Nc1cccc(CON=C(c2cccc(F)c2)c2nnnn2C)n1", "note": "[Example 331]", "log p": 3.61},
      {"smiles": "Cn1nnnc1C(=NOCc1csc(NC(=O)c2ccc(Cl)cc2)n1)c1ccccc1", "note": "[Example 333]", "log p": 3.74},
      {"smiles": "Cc1ccc(C(=O)Nc2nc(CON=C(c3ccccc3)c3nnnn3C)cs2)cc1", "note": "[Example 335]", "log p": 3.59},
      {"smiles": "Cn1nnnc1C(=NOCc1csc(NC(=O)c2cc(F)cc(F)c2)n1)c1ccccc1", "note": "[Example 340]", "log p": 3.63},
      {"smiles": "COc1ccccc1C(=O)Nc1cccc(CON=C(c2cccc(F)c2)c2nnnn2C)n1", "note": "[Example 345]", "log p": 3.79},
      {"smiles": "Cc1ccc(C(=O)Nc2cccc(CON=C(c3cccc(F)c3)c3nnnn3C)n2)c(Cl)c1", "note": "[Example 354]", "log p": 3.9},
      {"smiles": "Cn1nnnc1C(=NOCc1cccc(NC(=O)c2cccnc2Cl)n1)c1cccc(F)c1", "note": "[Example 360]", "log p": 2.94},
      {"smiles": "Cn1nnnc1C(=NOCc1cccc(NC(=O)c2ccccc2Cl)n1)c1cccc(F)c1", "note": "[Example 362]", "log p": 3.57},
      {"smiles": "Cn1nnnc1C(=NOCc1cccc(NC(=O)c2ccccc2Br)n1)c1cccc(F)c1", "note": "[Example 365]", "log p": 3.59},
      {"smiles": "Cn1nnnc1C(=NOCc1cccc(NC(=O)c2ccccc2F)n1)c1cccc(F)c1", "note": "[Example 366]", "log p": 3.65},
      {"smiles": "C#CCCOC(=O)Nc1cccc(CON=C(c2cccc(F)c2)c2nnnn2C)n1", "note": "[Example 374]", "log p": 3.21}
    ]}
  ]
}
